Reference: ChEMBL document CHEMBL1150977, “A quantitative analysis of kinase inhibitor selectivity” (Nat Biotechnol, 2008)

Columns and labels:
[1] = target: Serine/threonine-protein kinase B-raf (Homo sapiens, UniProt P15056)
SRSF protein kinase 2 = SRSF protein kinase 2 (Homo sapiens, UniProt P78362)
[2] = target: T1, Tyrosine-protein kinase TXK (Homo sapiens, UniProt P42681)
T1 sequence (P42681 whole entry): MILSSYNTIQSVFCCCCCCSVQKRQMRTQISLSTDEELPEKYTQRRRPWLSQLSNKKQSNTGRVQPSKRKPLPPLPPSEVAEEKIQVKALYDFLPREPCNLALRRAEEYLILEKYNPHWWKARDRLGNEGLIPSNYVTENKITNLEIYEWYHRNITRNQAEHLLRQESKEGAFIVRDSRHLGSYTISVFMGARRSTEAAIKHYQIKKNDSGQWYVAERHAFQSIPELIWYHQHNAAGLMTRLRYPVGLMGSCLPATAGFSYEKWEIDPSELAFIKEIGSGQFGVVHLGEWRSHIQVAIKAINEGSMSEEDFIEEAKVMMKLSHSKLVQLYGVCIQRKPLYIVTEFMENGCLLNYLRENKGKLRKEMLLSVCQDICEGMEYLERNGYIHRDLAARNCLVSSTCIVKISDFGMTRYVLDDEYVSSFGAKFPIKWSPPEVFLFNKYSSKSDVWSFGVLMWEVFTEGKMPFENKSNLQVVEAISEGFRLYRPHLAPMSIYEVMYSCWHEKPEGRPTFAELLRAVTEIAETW

[3] = target: T2, Mitogen-activated protein kinase 15 (Homo sapiens, UniProt Q8TD08)
T2 sequence (Q8TD08 whole entry): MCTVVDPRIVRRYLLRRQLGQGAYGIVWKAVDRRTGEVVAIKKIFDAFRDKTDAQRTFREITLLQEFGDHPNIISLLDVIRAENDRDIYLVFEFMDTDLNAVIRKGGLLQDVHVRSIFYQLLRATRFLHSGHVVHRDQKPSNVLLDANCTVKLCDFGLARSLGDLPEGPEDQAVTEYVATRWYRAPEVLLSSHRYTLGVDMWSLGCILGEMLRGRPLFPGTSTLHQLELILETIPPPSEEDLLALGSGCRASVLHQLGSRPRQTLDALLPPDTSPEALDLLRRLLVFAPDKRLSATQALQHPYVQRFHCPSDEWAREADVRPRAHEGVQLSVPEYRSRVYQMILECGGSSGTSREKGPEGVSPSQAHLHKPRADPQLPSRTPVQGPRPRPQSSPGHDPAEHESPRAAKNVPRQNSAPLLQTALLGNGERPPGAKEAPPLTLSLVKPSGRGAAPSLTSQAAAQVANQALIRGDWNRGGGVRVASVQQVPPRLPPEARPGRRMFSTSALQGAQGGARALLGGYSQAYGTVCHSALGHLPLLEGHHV

[4] = target: Serine/threonine-protein kinase PAK 5 (Homo sapiens, UniProt Q9P286)
[5] = target: T3, Calcium/calmodulin-dependent protein kinase type IV (Homo sapiens, UniProt Q16566)
T3 sequence (Q16566 whole entry): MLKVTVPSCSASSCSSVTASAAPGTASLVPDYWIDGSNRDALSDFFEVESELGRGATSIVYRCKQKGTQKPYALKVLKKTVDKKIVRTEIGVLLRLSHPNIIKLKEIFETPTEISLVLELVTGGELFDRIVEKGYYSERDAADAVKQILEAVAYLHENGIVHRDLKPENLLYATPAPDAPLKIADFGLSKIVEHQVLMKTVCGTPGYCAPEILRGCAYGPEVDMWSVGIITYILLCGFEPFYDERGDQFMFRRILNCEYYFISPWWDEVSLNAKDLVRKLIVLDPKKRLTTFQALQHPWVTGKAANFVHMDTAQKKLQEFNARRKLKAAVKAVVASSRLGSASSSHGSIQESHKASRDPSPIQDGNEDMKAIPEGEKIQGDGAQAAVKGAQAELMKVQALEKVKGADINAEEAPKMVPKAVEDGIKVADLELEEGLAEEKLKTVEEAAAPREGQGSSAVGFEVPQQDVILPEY

Ephrin type-A receptor 4 = Ephrin type-A receptor 4 (Homo sapiens, UniProt P54764)
[6] = target: Calcium/calmodulin-dependent protein kinase kinase 1 (Homo sapiens, UniProt Q8N5S9)
Chain of Calcium/calmodulin-dependent protein kinase kinase 1 (Q8N5S9 whole entry): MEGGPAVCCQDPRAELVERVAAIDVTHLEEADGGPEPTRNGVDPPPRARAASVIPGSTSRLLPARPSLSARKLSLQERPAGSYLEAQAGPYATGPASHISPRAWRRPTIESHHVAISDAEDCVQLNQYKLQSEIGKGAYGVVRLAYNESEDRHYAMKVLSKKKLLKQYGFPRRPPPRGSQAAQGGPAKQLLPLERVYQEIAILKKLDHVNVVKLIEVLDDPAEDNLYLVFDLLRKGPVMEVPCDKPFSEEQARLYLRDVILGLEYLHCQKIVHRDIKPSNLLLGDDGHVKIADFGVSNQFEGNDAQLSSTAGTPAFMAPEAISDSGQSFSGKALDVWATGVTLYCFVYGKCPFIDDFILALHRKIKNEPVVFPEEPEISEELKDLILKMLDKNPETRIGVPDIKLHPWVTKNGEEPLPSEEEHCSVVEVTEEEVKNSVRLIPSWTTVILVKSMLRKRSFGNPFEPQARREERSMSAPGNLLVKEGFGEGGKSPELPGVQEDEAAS

[7] = target: TRAF2 and NCK-interacting protein kinase (Homo sapiens, UniProt Q9UKE5)
Chain of TRAF2 and NCK-interacting protein kinase (Q9UKE5 whole entry): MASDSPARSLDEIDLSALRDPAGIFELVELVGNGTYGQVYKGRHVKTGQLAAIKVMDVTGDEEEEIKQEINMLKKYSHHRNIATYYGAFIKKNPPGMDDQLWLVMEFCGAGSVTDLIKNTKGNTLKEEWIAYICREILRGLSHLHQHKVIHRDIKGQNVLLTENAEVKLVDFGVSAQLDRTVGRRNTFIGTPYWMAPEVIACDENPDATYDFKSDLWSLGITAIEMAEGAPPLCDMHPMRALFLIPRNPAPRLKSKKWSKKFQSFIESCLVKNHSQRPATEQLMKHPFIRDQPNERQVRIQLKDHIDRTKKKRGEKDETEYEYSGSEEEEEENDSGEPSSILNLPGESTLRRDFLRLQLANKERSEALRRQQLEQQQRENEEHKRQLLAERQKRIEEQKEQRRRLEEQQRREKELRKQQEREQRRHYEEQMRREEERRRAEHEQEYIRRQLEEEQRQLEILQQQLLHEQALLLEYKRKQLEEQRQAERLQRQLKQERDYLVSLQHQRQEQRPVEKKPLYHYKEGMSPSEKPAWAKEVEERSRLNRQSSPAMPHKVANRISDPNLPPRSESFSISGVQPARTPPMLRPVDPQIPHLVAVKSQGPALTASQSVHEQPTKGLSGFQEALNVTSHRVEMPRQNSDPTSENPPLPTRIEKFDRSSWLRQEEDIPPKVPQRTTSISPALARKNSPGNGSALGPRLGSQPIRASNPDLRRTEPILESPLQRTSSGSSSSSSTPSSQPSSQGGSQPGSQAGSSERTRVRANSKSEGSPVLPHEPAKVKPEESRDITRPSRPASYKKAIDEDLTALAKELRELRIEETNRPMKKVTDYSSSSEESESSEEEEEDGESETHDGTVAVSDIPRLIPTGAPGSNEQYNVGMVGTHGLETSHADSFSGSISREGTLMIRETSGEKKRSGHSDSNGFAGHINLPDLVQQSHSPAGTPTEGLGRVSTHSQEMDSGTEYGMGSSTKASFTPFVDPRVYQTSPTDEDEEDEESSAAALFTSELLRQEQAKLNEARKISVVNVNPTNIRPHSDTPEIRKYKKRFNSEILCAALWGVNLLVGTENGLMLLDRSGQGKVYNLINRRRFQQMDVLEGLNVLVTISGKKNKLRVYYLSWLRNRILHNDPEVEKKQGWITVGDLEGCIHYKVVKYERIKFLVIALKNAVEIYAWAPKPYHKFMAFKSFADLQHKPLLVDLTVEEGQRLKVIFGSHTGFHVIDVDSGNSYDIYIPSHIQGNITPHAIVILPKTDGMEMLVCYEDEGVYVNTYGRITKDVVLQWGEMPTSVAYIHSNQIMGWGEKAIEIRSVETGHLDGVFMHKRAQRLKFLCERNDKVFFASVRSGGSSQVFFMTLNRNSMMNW

[8] = target: T4, Serine/threonine-protein kinase 3 (Homo sapiens, UniProt Q13188)
T4 sequence (Q13188 whole entry): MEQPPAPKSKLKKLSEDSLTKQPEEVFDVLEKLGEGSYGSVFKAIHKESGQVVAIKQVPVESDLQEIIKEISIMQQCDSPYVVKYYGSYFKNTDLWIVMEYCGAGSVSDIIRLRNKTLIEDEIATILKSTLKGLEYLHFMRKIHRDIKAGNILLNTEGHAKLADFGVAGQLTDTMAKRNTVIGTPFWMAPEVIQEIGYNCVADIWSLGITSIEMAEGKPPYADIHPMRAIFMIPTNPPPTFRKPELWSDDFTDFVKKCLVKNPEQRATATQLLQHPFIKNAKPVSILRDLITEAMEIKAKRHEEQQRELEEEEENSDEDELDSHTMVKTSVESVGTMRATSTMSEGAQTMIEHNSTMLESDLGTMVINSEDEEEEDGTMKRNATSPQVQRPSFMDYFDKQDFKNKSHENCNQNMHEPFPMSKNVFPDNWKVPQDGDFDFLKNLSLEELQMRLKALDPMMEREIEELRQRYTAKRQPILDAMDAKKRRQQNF

[9] = target: STE20-like serine/threonine-protein kinase (Homo sapiens, UniProt Q9H2G2)
Chain of STE20-like serine/threonine-protein kinase (Q9H2G2 whole entry): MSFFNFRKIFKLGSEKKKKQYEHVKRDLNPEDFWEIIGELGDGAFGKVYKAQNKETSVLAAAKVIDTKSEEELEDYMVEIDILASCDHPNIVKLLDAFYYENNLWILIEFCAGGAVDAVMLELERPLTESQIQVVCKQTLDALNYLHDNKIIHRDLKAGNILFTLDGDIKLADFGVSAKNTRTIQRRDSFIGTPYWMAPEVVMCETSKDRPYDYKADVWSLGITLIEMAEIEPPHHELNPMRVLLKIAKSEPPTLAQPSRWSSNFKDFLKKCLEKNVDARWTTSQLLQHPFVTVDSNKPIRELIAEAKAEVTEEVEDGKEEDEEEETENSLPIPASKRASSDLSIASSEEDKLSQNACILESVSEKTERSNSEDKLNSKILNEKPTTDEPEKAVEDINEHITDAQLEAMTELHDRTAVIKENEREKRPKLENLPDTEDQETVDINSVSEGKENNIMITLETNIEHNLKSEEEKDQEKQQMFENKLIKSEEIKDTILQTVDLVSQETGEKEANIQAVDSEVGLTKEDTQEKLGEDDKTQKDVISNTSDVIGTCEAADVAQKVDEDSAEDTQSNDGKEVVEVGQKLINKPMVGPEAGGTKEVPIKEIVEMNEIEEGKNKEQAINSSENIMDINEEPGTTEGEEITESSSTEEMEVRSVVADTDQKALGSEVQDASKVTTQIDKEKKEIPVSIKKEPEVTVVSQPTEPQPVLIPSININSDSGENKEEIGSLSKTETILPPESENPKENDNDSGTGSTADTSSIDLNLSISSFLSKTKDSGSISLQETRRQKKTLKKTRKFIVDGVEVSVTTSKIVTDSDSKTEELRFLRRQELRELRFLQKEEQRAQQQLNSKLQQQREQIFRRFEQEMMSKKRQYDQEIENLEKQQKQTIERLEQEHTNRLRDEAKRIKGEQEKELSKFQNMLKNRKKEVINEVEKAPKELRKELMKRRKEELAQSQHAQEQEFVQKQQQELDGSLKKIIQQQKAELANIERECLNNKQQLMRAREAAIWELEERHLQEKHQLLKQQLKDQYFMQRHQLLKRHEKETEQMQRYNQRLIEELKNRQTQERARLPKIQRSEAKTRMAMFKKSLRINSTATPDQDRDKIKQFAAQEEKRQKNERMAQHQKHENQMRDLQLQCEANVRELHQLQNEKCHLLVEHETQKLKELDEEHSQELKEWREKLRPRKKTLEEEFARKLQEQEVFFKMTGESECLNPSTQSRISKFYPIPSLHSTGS

Chain of Serine/threonine-protein kinase B-raf (P15056 whole entry): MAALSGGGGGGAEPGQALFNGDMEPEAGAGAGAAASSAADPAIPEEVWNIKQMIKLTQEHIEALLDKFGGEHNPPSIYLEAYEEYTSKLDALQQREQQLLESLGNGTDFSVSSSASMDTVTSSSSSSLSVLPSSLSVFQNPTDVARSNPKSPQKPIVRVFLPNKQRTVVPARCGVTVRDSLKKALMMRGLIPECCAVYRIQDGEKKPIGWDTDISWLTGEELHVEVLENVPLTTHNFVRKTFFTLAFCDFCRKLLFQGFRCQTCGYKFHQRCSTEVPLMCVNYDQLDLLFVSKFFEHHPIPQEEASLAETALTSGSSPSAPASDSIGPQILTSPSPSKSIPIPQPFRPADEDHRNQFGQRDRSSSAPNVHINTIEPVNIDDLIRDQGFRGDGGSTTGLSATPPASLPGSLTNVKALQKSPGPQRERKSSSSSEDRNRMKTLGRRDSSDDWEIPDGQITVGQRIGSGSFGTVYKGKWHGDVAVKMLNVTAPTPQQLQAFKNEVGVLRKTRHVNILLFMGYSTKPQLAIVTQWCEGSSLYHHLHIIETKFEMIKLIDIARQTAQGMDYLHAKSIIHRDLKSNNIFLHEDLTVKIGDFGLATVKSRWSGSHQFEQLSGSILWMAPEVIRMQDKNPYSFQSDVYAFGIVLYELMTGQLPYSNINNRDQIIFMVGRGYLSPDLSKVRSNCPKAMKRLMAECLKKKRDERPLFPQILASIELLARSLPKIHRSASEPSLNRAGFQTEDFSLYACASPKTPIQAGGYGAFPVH
Chain of SRSF protein kinase 2 (P78362 whole entry): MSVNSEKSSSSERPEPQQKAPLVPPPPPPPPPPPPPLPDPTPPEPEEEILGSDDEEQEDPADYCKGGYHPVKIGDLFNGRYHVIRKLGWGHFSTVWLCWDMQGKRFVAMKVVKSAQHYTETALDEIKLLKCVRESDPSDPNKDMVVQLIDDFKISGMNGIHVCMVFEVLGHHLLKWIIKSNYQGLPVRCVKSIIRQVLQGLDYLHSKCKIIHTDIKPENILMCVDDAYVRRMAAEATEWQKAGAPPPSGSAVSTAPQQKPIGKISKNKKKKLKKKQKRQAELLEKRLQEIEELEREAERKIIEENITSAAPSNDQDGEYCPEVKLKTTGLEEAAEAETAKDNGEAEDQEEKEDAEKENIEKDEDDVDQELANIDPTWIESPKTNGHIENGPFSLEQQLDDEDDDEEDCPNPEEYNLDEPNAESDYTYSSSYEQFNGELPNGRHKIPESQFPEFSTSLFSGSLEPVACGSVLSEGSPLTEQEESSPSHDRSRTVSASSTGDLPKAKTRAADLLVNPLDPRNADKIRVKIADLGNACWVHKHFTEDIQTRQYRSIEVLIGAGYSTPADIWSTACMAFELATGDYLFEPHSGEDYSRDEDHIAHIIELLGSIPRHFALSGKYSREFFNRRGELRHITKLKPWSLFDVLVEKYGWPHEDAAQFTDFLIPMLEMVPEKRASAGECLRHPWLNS

Row | Compound | Kd [1] | Kd (SRSF protein kinase 2) | Kd [2] | Kd [3] | Kd [4] | Kd [5] | Kd (Ephrin type-A receptor 4) | Kd [6] | Kd [7] | Kd [8] | Kd [9]
1 | CCOc1cc2ncc(C#N)c(Nc3ccc(F)c(Cl)c3)c2cc1NC(=O)/C=C/CN(C)C [PELITINIB] | > 10 µM | > 10 µM | 5.5 µM | > 10 µM | > 10 µM | > 10 µM | > 10 µM | 5.1 µM |  |  | 
2 | COCC(=O)NC/C=C/c1ccc2ncnc(Nc3ccc(Oc4ccc(C)nc4)c(C)c3)c2c1 [CP-724714] |  | > 10 µM | > 10 µM | > 10 µM | > 10 µM | > 10 µM | > 10 µM | > 10 µM | > 10 µM | > 10 µM | > 10 µM
3 | NC(=O)c1ccc(-c2nc(-c3ccc4c(c3)OCO4)c(-c3ccccn3)[nH]2)cc1 [SB-431542] |  | > 10 µM | > 10 µM | > 10 µM | > 10 µM | > 10 µM | > 10 µM | > 10 µM | > 10 µM | > 10 µM | > 10 µM
4 | Nc1nc(Nc2ccc(S(N)(=O)=O)cc2)nn1C(=O)c1c(F)cccc1F [JNJ-7706621] | > 10 µM | > 10 µM | > 10 µM |  |  | > 10 µM | > 10 µM |  | > 10 µM |  | 0.048 µM
5 | Oc1ccc(-c2nc(-c3ccncc3)c(-c3ccc(F)cc3)[nH]2)cc1 [SB-202190] | 4.8 µM | > 10 µM | > 10 µM | > 10 µM | > 10 µM | > 10 µM | > 10 µM | > 10 µM | 1.6 µM | > 10 µM | 3.2 µM
